The results in this text go back to patent publication US20130011376A1, “Methods for Enhancing Natural Killer Cell Proliferation and Activity” (GAMIDA CELL LTD., priority 2009, published 2013).

Assay [1] concerns cord blood NK cells (CD56+). Kind of assay: Ex-vivo proliferation of purified cord blood CD56+ NK cells cultured with cytokines and nicotinamide. In kind it is cell-based, human. As to conditions: for proliferation of NK cells relative to growth factors (cytokines) alone: 14 days. As for the experimental part:
Cells were obtained from umbilical cord blood after normal full-term delivery (informed consent was given). Samples were collected and frozen within 24 hours postpartum. Briefly, cord blood was collected by gravity from delivered placentas, the leukocyte-rich fraction was separated by density gradient centrifugation, cells mixed with DMSO (10%) and then frozen at −80° C. Prior to use, the cells were thawed in Dextran buffer (Sigma, St. Louis, Mo., USA) containing 2.5% human serum albumin (HSA) (Bayer Corp. Elkhart, Ind., USA), and the cryoprotectant removed.
(§1) Cord blood (CB), bone marrow (BM) or peripheral blood (PB) cells were layered on a Ficoll-Hypaque gradient (1.077 g/mL; Sigma), and centrifuged at 800×g for 30 minutes for separation of the mononuclear cells. The cells in the interface layer were collected and washed three times in phosphate-buffered saline (PBS) (Biological Industries, Israel) containing 0.5% HSA. To purify the CD56+ cells, the mononuclear cell fraction was subjected to two cycles of immunomagnetic bead separation, using a “MiniMACS or CliniMACS CD56 progenitor cell isolation kit” (Miltenyi Biotec Bergisch, Gladbach, Germany), according to the manufacturer's recommendations. Briefly, CD56+ cells are reacted with CD56+ specific magnetic immunobeads, separated and with a magnetic separator, and purified from unbound cells by washing. The purity of the CD56+ population thus obtained is approximately 92%, as evaluated by flow cytometry.
(§2) 2. Purified CD56+ or CD56+CD3− cells from total nuclear or mononuclear cells or from the fraction depleted from CD34+ or CD133+ cells were cultured in culture bags, T-Flasks or 24 well plates at a concentration of 1-100×10^4 cells/ml in MEMα/10% FCS or CellGro SCGM (Cell Genix)/5% Human Serum/LiforCell® FBS Replacement (Lifeblood Products) containing the following human recombinant cytokines:, interleukin-2 (IL-2) (5-50 ng/ml), interleukin-15 (IL-15), FLT-3 or SCF or FLT3 and SCF or IL-2 and IL-15 or IL-2 only (Perpo Tech, Inc., Rocky Hill, N.J., USA), with or without nicotinamide, and incubated at 37° C. in a humidified atmosphere of 5% CO2 in air. The cultures were topped up once or twice a week with the same volume of fresh medium containing growth factors with or without nicotinamide. Eventually cultures can be supplemented once or several times a week with IL-2 and or IL-2 and IL-15. To estimate the number of cells in culture, cell samples were stained with trypan blue for counting. At various time points, samples were taken for FACS analysis to assay the relative fractions of NK cells, CD56+CD3−, CD56+CD3+, CD34+CD56+, CD56+CD16+ and/or CD56+ NKG2A cells.
In order to calculate the number of NK cells on day 0, the total number of cells seeded on day 0 was multiplied by the percent of CD56+/CD3− cells measured by the FACS on day 0.
(§3) To determine total number of cells on day 7, 14 and 21, the cell count/ml was multiplied by the volume of the culture medium. In order to determine the number of NK cells in culture, the total number of cells in culture was multiplied by the percent of CD56+/CD3− cells measured with the FACS on days 7, 14 or 21. To measure fold expansion, total number of NK cells on days 7, 14 and 21 was divided by total number of NK cells seeded in culture on day-0.

For assay [2], the system named is bone marrow derived CD56+ cells. Kind of assay: Proliferation and subsets of bone marrow derived CD56+ cells in culture. The format is cell-based, human. As for the experimental part:
Bone marrow (BM) and peripheral blood (PB) cells were layered on a Ficoll-Hypaque gradient (1.077 g/mL; Sigma), and centrifuged at 800×g for 30 min. The mononuclear cells in the interface layer were collected and washed three times in phosphate-buffered saline (PBS) (Biological Industries, Israel) containing 0.5% HSA.
as §1, §2, §3
(§4) The cells were washed with a PBS solution containing 1% BSA, and stained (at 4° C. for 30 min) with fluorescein isothiocyanate (FITC)- or phycoerythrin (PE)-conjugated antibodies or allophycocyanin (APC). The cells were then washed in the above buffer and analyzed using a FACScalibur® flow cytometer (Becton Dickinson, San Jose, Calif., USA). The cells were passed at a rate of up to 1000 cells/second, using a 488 nm or 661 nm argon laser beam as the light source for excitation. Emission of 10^4 cells was measured using logarithmic amplification, and analyzed using the CellQuest software (Becton Dickinson). Cells stained with FITC, PE and APC-conjugated isotype control antibodies were used to determine background fluorescence.

For assay [3], the system named is purified cord-blood derived CD56+ cells. Kind of assay: Inhibitory CD56+NKG2A cell fraction in cultured cord blood CD56+ cells (FACS). As to conditions: 1, 2.5 and 5 mM nicotinamide, 3 weeks culture. In kind it is cell-based, human. As for the experimental part:
as §2, with “Eventually cultures can be supplemented once or several times a week with IL-2 and or IL-2 and IL-15. To estimate the number of cells in culture, cell samples were stained with trypan blue for counting. At various time points, samples were taken for FACS analysis to assay the relative fractions of NK cells, CD56+CD3−, CD56+CD3+, CD34+CD56+, CD56+CD16+ and/or CD56+ NKG2A cells.” left out
as §4, with “The cells were passed at a rate of up to 1000 cells/second, using a 488 nm or 661 nm argon laser beam as the light source for excitation.” left out, “fluorescence. […]” for “fluorescence.”

The subject of assay [4] is irradiated NOD/SCID mice. Kind of assay: In-vivo homing and engraftment of cultured human NK cells. The settings on record: 4 days post infusion. As for the experimental part: NK cells were expanded with or without 2.5 mM or 5.0 mM nicotinamide, as described above. After 2-3 weeks in culture, similar numbers (15×10^6) of cells were infused into irradiated (350 Rad) NOD/SCID mice. Mice were sacrificed 4-days post infusion. Spleen, bone marrow and peripheral blood were analyzed for the homing and engraftment of human NK (CD45+CD56+) cells using […], in order to distinguish them from endogenous cells. Engraftment is expressed as the % of NK cells having the transplanted lineage (CD45+CD56+) using anti-human specific antibodies from the total number of mouse endogenous cells identified in the tissue.
Irradiated (350 Rad) NOD/SCID mice received 15×10^6 cells from human peripheral blood NK (T-cell depleted) cultures maintained for up to 3 weeks with (NAM 2.5 mM and NAM 5 mM) or without (NAM 0) nicotinamide. Upon sacrifice of the mice 4 days post infusion, samples of spleen, bone marrow and peripheral blood were evaluated by FACS for the presence of human NK cells (CD56+CD45+) using human specific Abs.

Setting [5] is: 1 mM, 2.5 mM and 5 mM nicotinamide, 7 days.

Structures are written as SMILES.

For the compound `NC(=O)c1cccnc1` [nicotinamide], in assay [1] (0.5 mM to 5 mM nicotinamide, three weeks culture), the “NK cell proliferation relative to growth factors (cytokines) alone” value is reported as “up to 2.5 times”. The “proliferation of NK cells relative to growth factors (cytokines) alone” value in assay [1] (2.5 mM nicotinamide, IL-2 and IL-15) is recorded as “greater than 4 times”; in assay [1] (5 mM nicotinamide, compared with 2.5 mM), “even greater”. In addition, the “expansion of cord blood CD56+ NK cultures vs cytokine-only controls” value in assay [1] (1 to 7.5 mM nicotinamide, up to 3 weeks, Flt-3, IL-2 and IL-15) is “dose-dependent increase in the expansion”. Further, the “proliferation of NK cells” value in assay [1] (all concentrations tested, as early as 14 days of culture) is on record as “significantly enhanced proliferation”. In addition, in assay [2] (setting [5]), the “proliferation of CD56+CD3+ NKT cells” value is “decreased proliferation”. Further, the “proliferation of the CD56+CD3- NK cell subset” value in assay [2] (setting [5]) is reported as “enhancement of proliferation”. Further, in assay [2] (2.5 mM and 5 mM nicotinamide, 7 days), the “proliferation of CD56+CD16+ NK cells” value was “most enhanced”. Besides, the “increase of NK cell proliferation between 14 and 21 days” value in assay [2] (2.5 mM nicotinamide) came out at 50%. The “fraction of NK cells displaying the CD56+CD16+ phenotype vs cytokines alone” value in assay [2] (2.5 mM nicotinamide, 14 and 21 days) is reported as “significant increase”. The “proliferation of NK cells (fold increase)” value in assay [2] (2.5 mM nicotinamide, 14 days) is 8 fold increase; in assay [2] (2.5 mM nicotinamide, 21 days), 12 fold increase. In addition, in assay [2] (nicotinamide treated cultures, 21 days), the “CD56+CD3- NK cells among cultured cells (dominance over CD56+CD3+ NKT cells)” value is listed as “greater than 80%”. Moreover, the “prevalence of the inhibitory CD56+NKG2A cell fraction among NK cells” value in assay [3] is “significant and dose dependent reduction”. Besides, in assay [4] (5 mM compared with 2.5 mM), the “localization and engraftment, higher vs lower nicotinamide concentration” value is on record as “stronger effect”. For the same compound, in assay [4] (15x10^6 cells cultured with 2.5 mM or 5 mM nicotinamide), the “localization and engraftment of human NK cells (CD56+CD45+) in spleen, bone marrow and peripheral blood” value is “increased localization and engraftment”.
